In PMC4612330 (Cancer Chemotherapy and Pharmacology, 2015):
Values joined by “and” are separate entries in the source; they are usually repeats but may differ in a detail not shown here. Equal entries are not always repeated. Where two headings read alike, the source gives them in different places. Values belong to the compound of their own block, whether it stands above or below them.

Assays:
[1] = phase 1 plasma pharmacokinetics, noncompartmental; conditions: for AUCt: carboplatin AUC 6 mg/mL min IV day 3, last sampling 21 h
Method: Six cycles of therapy were planned.
Plasma samples were stored at −20 °C until shipment to AbbVie. […] Plasma concentrations of carboplatin were determined using an inductively coupled plasma mass spectrometry. Standard pharmacokinetic parameters were determined using non-compartmental methods.

[2] = system: major cytochrome P450 enzymes; conditions: at therapeutic doses; cited from earlier work
[3] = set-up: method as in printed; conditions: ref not given; cited from earlier work
[4] = system: Japanese patients with NSCLC; experiment: phase 1 anti-tumor response (RECIST version 1.1) of veliparib plus carboplatin and paclitaxel; format: in vivo, human
Method: A CT scan of the full chest and abdomen with images of the liver and adrenal glands was performed for all tumor assessments at screening (within 3 weeks prior to registration) and at the end of every 2 cycles (6 weeks). Tumor assessments were performed within 7 days of the scheduled date.

[5] = set-up: method as in printed; conditions: ref not given; cited from earlier work; remark: listed apart in the source
[6] = system: major drug transporters; conditions: at therapeutic doses; cited from earlier work
[7] = system: PARP activity in PBMCs; conditions: 50 mg, maintained for 24 h in 3 subjects; cited from earlier work
[8] = system: patients with newly diagnosed ovarian cancer; set-up: method as in GOG 9923; conditions: with carboplatin, paclitaxel, and bevacizumab; study ongoing; ref GOG 9923; cited from earlier work
[9] = system: patients with triple-negative breast cancer; conditions: veliparib and carboplatin plus standard neoadjuvant therapy; cited from earlier work
[10] = system: lung cancer tumor models; conditions: preclinical lung cancer tumor models; cited from earlier work
[11] = system: patients with triple-negative breast cancer; conditions: with carboplatin and paclitaxel; cited from earlier work
[12] = system: patients with advanced or metastatic solid tumors; conditions: cited from earlier work
[13] = system: patients with advanced or metastatic NSCLC; conditions: cited from earlier work
[14] = in humans; cited from earlier work
[15] = system: PARP activity in tumor biopsies; conditions: cited from earlier work; for PARP inhibition in tumor biopsies, average: 50 mg
[16] = carboplatin AUC 6 mg/mL min IV day 3, all patients N = 12, mean ± SD
[17] = carboplatin AUC 6 mg/mL min IV day 3, with veliparib 40 mg BID n = 3, mean ± SD
[18] = carboplatin AUC 6 mg/mL min IV day 3, with veliparib 80 mg BID n = 3, mean ± SD
[19] = carboplatin AUC 6 mg/mL min IV day 3, with veliparib 120 mg (BID) n = 6, mean ± SD
[20] = plus carboplatin and paclitaxel

SMILES: N.N.O=C([O-])C1(C(=O)[O-])CCC1.[Pt+2] [Carboplatin, reference compound]
AUCt ([1]; all patients N = 12, mean ± SD): 92500 ± 6540 ng·h/mL | AUCt ([1]; with veliparib 40 mg BID n = 3, mean ± SD): 94100 ± 9910 ng·h/mL | AUCt ([1]; with veliparib 80 mg BID n = 3, mean ± SD): 95100 ± 5830 ng·h/mL | AUCt ([1]; with veliparib 120 mg (BID) n = 6, mean ± SD): 90300 ± 5450 ng·h/mL | AUC∞ [1, 16]: 103000 ± 7670 ng·h/mL | C max [1, 16]: 22600 ± 2250 ng/mL | T max [1, 16]: 1.0 ± 0.0 h | AUC∞ [1, 17]: 105000 ± 12300 ng·h/mL | C max [1, 17]: 22300 ± 2370 ng/mL | T max [1, 17]: 1.0 ± 0.0 h | AUC∞ [1, 18]: 105000 ± 7140 ng·h/mL | C max [1, 18]: 24300 ± 1160 ng/mL | T max [1, 18]: 1.0 ± 0.0 h | AUC∞ [1, 19]: 100000 ± 5730 ng·h/mL | C max [1, 19]: 22000 ± 2450 ng/mL | T max [1, 19]: 1.0 ± 0.0 h | pharmacokinetics when co-administered with 40, 80, or 120 mg veliparib BID ([1]; day 3 of cycle 1): comparable

T max ([1]; human, in vivo, iv): 3.0 ± 0.0 h | AUC(0-t) ([1]; human, in vivo, iv, 200 mg/m2, AUCt): 24800 ± 2860 ng·h/mL | AUC(0-inf) ([1]; human, in vivo, iv, 200 mg/m2, AUC∞): 25500 ± 2890 ng·h/mL | Cmax ([1]; human, in vivo, iv, 200 mg/m2, C max): 6840 ± 1200 ng/mL | Tmax ([1]; human, in vivo, iv, 200 mg/m2, T max): 2.9 ± 0.3 h | Tmax ([1]; human, in vivo, iv, T max): 3.1 ± 0.2 h
SMILES: CC(=O)O[C@H]1C(=O)[C@@]2(C)[C@H]([C@H](OC(=O)c3ccccc3)[C@]3(O)C[C@H](OC(=O)[C@H](O)[C@@H](NC(=O)c4ccccc4)c4ccccc4)C(C)=C1C3(C)C)[C@]1(OC(C)=O)CO[C@@H]1C[C@@H]2O [Paclitaxel, reference compound]

AUC0–8/dose ([1]; human, in vivo): 31.4 ± 6.69 (ng h/mL)/mg | AUC∞/dose ([1]; human, in vivo): 44.2 ± 11.3 (ng h/mL)/mg | C max/dose ([1]; human, in vivo): 7.06 ± 1.29 (ng/mL)/mg | AUC0–8/dose ([1]; human, in vivo, 40 mg): 32.2 ± 9.24 (ng h/mL)/mg | AUC∞/dose ([1]; human, in vivo, 40 mg): 46.0 ± 16.8 (ng h/mL)/mg | C max/dose ([1]; human, in vivo, 40 mg): 8.18 ± 1.19 (ng/mL)/mg | AUC(0-t) ([1]; human, in vivo, 40 mg, AUC0–8): 1290 ± 370 ng·h/mL | AUC(0-inf) ([1]; human, in vivo, 40 mg, AUC∞): 1840 ± 671 ng·h/mL | Cmax ([1]; human, in vivo, 40 mg, C max): 327 ± 47.7 ng/mL | Tmax ([1]; human, in vivo, 40 mg, T max): 2.5 ± 1.3 h | AUC0–8/dose ([1]; human, in vivo, 80 mg): 26.7 ± 2.46 (ng h/mL)/mg | AUC∞/dose ([1]; human, in vivo, 80 mg): 35.0 ± 3.33 (ng h/mL)/mg | C max/dose ([1]; human, in vivo, 80 mg): 6.01 ± 0.35 (ng/mL)/mg | AUC(0-t) ([1]; human, in vivo, 80 mg, AUC0–8): 2140 ± 197 ng·h/mL | AUC(0-inf) ([1]; human, in vivo, 80 mg, AUC∞): 2800 ± 266 ng·h/mL | Cmax ([1]; human, in vivo, 80 mg, C max): 481 ± 27.8 ng/mL | Tmax ([1]; human, in vivo, 80 mg, T max): 3.3 ± 1.2 h | AUC0–8/dose ([1]; human, in vivo, 120 mg): 33.3 ± 6.34 (ng h/mL)/mg | AUC∞/dose ([1]; human, in vivo, 120 mg): 48.0 ± 9.72 (ng h/mL)/mg | C max/dose ([1]; human, in vivo, 120 mg): 7.03 ± 1.27 (ng/mL)/mg | dose proportionality of Cmax and AUC ([1]; human, in vivo, 120 mg): approximately dose proportional | AUC(0-t) ([1]; human, in vivo, 120 mg, AUC0–8): 3990 ± 796 ng·h/mL | AUC(0-inf) ([1]; human, in vivo, 120 mg, AUC∞): 5760 ± 1170 ng·h/mL | Cmax ([1]; human, in vivo, 120 mg, C max): 844 ± 152 ng/mL | Tmax ([1]; human, in vivo, 120 mg, T max): 3 ± 1.1 h | pharmacokinetic profile, Japanese versus Western populations ([1]; in vivo): generally comparable
SMILES: C[C@]1(c2nc3c(C(N)=O)cccc3[nH]2)CCCN1 [Veliparib, 2-[(R)-2-methylpyrrolidin-2-yl]-1H-benzimidazole-4-carboxamide]
inhibition of major cytochrome P450 enzymes [2]: not an inhibitor | solubility [3]: highly soluble | patients who developed progressive disease (PD) ([4]; 80 mg BID): One | median PFS ([4]; all dose levels): 92 days | patients who achieved PR at the first CT scan ([4]; all dose levels): 3 | patients who achieved a PR ([4]; all dose levels, 11 patients): Six | overall response rate ([4]; efficacy population, 11 patients): 55% | permeability [5]: permeable | inhibition of major drug transporters [6]: not an inhibitor | inhibition of PARP activity in PBMCs [7]: Complete inhibition | dose cleared [8]: ≥ 150 mg BID | estimated pathologic complete response rate [9]: 52% | effect on platinum-based chemotherapy [10]: potentiates the effect of platinum-based chemotherapy | dose cleared [11]: up to 200 mg BID | maximum dose of veliparib ([12]; for 7 days in addition to standard doses of carboplatin and paclitaxel): 120 mg BID | complete response (CR) ([12]; phase 1 dose-escalation study): 3% | complete response (CR), patients ([12]; phase 1 dose-escalation study): 2/68 | partial response (PR) ([12]; phase 1 dose-escalation study): 16% | partial response (PR), patients ([12]; phase 1 dose-escalation study): 11/68 | stable disease ([12]; phase 1 dose-escalation study): 51% | stable disease, patients ([12]; phase 1 dose-escalation study): 35/68 | RPTD ([12]; with standard doses of carboplatin and paclitaxel): 100 mg BID | Overall survival (OS) [13, 20]: 11.1 months | median progression-free survival (PFS) [13, 20]: 5.8 months | HR (PFS) ([13]; veliparib versus placebo, each plus carboplatin and paclitaxel): 0.71 | elimination [14]: primarily eliminated by renal excretion | PARP inhibition in tumor biopsies, average ([15]; 3–6 h after dosing (N = 3)): 75% | PARP inhibition in tumor biopsies, average ([15]; 24 h after dosing (N = 3)): 74% | inhibition of PARP activity in tumor biopsies ([15]; single dose of 25 mg, 3–6 h after dosing, 3 subjects (one value each)): 92% and 95% and 100%
